Literature values, collected in patent publication US10799449B2, “Medicinal delivery system and related methods” (JSRNTI, LLC, priority 2006, dated 2020).

Columns and labels:
[1] = in water

Compound | Solubility [1] | also measured
OC[C@@H](O)[C@@H](O[C@H]1O[C@H](CO)[C@@H](O)[C@H](O)[C@H]1O)[C@H](O)[C@@H](O)CO [Maltitol] | 71 grams/100 grams water | 
OC[C@@H](O)[C@@H](O)[C@H](O)[C@H](O)CO [Mannitol] | 23 grams/100 grams water | 
CN1CCCC1c1cccnc1 (stereo not drawn) [Nicotine] |  | Available nicotine in an un-ionized state (buffered saliva pH of 9.0): approximately 91%; pKa (weak base): approximately 8.0; Available nicotine in the un-ionized form (without buffer, normal saliva pH of 6.5): 3%
OC[C@@H](O)[C@H](O)[C@@H](O)CO [Xylitol] | 70 grams/100 grams water | 
Isomalt | 38 grams/100 grams water | 

Further lines, with some results ahead:

Solubility [1] | Compound | also measured
55 grams/100 grams water | OC[C@@H](O)[C@@H](O[C@@H]1O[C@H](CO)[C@H](O)[C@H](O)[C@H]1O)[C@H](O)[C@@H](O)CO [Lactitol] | 
75 grams/100 grams water | OC[C@@H](O)[C@@H](O)[C@H](O)[C@@H](O)CO [Sorbitol] | 
